Assay results reported in US20230149362A1, “NEW CAPSULE COMPOSITION FOR PERORAL ADMINISTRATION” (Vicore Pharma AB, priority 2020, published 2023).
Structures can show the parent of a compound that is named as a salt. Where two headings read alike, the source gives them in different places.

Experiments:
Type in all cases: physicochemical
[1] = Solubility of C21 sodium salt in aqueous vehicles; conditions: for solubility: thermodynamic from solid, saturation not reached, read-out: Concentration (solubility)
Method: In this experiment, C21 sodium salt (Syntagon AB) was added to the vehicle, small amounts at a time. About 20-30 mg of the sodium salt was easily dissolved in all the vehicles tested. Salt was continuously added to the same sample in an attempt to obtain a saturated solution. In this way, higher amounts, such as 40-60 mg/mL could be dissolved. The solubility is probably even higher than this in the vehicles tested, but this was not established in view of the limited amount of drug compound available.

[2] = Stability of aqueous solutions of C21 under four storage conditions (sensitivity to light); conditions: for Amount of Free C21, % of initial / Solution pH: sodium salt solution
Method: The stability of free C21 in 0.9% NaCl pH 9.4 was investigated.
Solutions of 1 mg/mL of C21 were studied for four weeks under four different storage conditions. The solution was filtered through a 0.22 sterile syringe filter to minimize bacterial growth during the stability test. The samples were analysed by HPLC for purity.
The results are summarised in Table 3 below, in which the amount of C21 is given as a percentage of the initial amount of drug. Solution pHs were also measured and are shown within parenthesis in Table 3.
The stability of the sodium salt of C21 was also investigated under the same storage conditions.
At the time for analysis of the one week samples, it was noted that the heating cabinet for storage of samples at 40° C. was broken. In view of this, these samples were thereafter kept at room temperature for three days.

[3] = Compatibility study of C21 sodium salt with lipid-based ingredients and capsule shell components
Method: Experiments were then performed to assess the chemical compatibility of C21 with selected pharmaceutically-acceptable lipid-based ingredients (some, but not all, of which were also studied in Example 3 above), as well as the main soft shell gelatin capsule components, under accelerated conditions.
The compatibility study was performed by storing at 40° C. and 75% RH for eight weeks in a climatic chamber (Weiss Technik), during which an analysis of impurities formed was performed after four (T4) and eight (T8) weeks.
An additional experiment was performed by storing for eight weeks at room temperature in the laboratory (with controlled temperature and humidity).
Testing of C21 sodium salt in the absence of excipients was performed as a reference.
In Table 6, the generic names and the sources of the various excipients are the same as presented above, e.g. in Table 5.
Samples A0 to A16 and B1 were prepared in 20 mL glass vials, with two preparations being prepared for each time point. Samples C1 to C16 and D1 were prepared in 20 mL glass vials, with one preparation for each time point.
Assay and impurity evaluations were made using the same Waters UPLC Acquity system and essentially the same chromatographic conditions as described in Example 3 above.
The impurity analysis is summarized in Table 7 below, in which C21 assay values (I) and impurity values (II) are presented as % recovery and represent the average value obtained for each mixture on the two sample preparations.

[4] = 40° C., dark, 1 week, heating cabinet found broken
[5] = T4 (four weeks), 40° C. and 75% RH
[6] = T8 (eight weeks), 40° C. and 75% RH
[7] = T8 (eight weeks), Ambient temp.

Structure (SMILES): CCCCOC(=O)NS(=O)(=O)c1sc(CC(C)C)cc1-c1ccc(Cn2ccnc2)cc1 [C21 sodium salt, N-butyloxycarbonyl-3-(4-imidazol-1-ylmethylphenyl)-5-iso-butylthiophene-2-sulfonamide]
- solubility ([1]; aqueous buffer, vehicle PBS pH 7.4, measured pH 9.4): > 40 mg/mL
- solubility compared with free C21 ([1]; aqueous vehicles): considerably higher than free C21
- solubility ([1]; saline or isotonic, vehicle 0.9% NaCl, pH 9.3): > 40 mg/mL
- amount that could be dissolved ([1]; vehicles tested (H2O, 0.9% NaCl, PBS), salt added continuously): 40 to 60 mg/mL
- solubility ([1]; water, vehicle H2O, pH 9.8): > 65 mg/mL
- light-induced degradation ([2]; aqueous solution, RT/light): light-induced degradation occurs
- Amount of Free C21, % of initial ([2]; 5° C., dark, 1 week): 108 % of initial
- Solution pH ([2]; 5° C., dark, 1 week): (8.5)
- Amount of Free C21, % of initial ([2]; 5° C., dark, 2 weeks): 113 % of initial
- Solution pH ([2]; 5° C., dark, 2 weeks): (8.4)
- Amount of Free C21, % of initial ([2]; 5° C., dark, 3 weeks): 113 % of initial
- Solution pH ([2]; 5° C., dark, 3 weeks): (8.5)
- Amount of Free C21, % of initial ([2]; 5° C., dark, 4 weeks): 112 % of initial
- Solution pH ([2]; 5° C., dark, 4 weeks): (8.5)
- Amount of Free C21, % of initial ([2]; 5° C., dark, Initial): 100 % of initial
- Solution pH ([2]; 5° C., dark, Initial): (8.3)
- Amount of Free C21, % of initial [2, 4]: 111 % of initial
- Solution pH [2, 4]: (8.6)
- Amount of Free C21, % of initial ([2]; 40° C., dark, 2 weeks): 111 % of initial
- Solution pH ([2]; 40° C., dark, 2 weeks): (8.5)
- Amount of Free C21, % of initial ([2]; 40° C., dark, 3 weeks): 109 % of initial
- Solution pH ([2]; 40° C., dark, 3 weeks): (8.7)
- Amount of Free C21, % of initial ([2]; 40° C., dark, 4 weeks): 118 % of initial
- Solution pH ([2]; 40° C., dark, 4 weeks): (8.1)
- Amount of Free C21, % of initial ([2]; 40° C., dark, Initial): 100 % of initial
- Solution pH ([2]; 40° C., dark, Initial): (8.3)
- Amount of Free C21, % of initial ([2]; RT, dark, 1 week): 115 % of initial
- Solution pH ([2]; RT, dark, 1 week): (8.6)
- Amount of Free C21, % of initial ([2]; RT, dark, 2 weeks): 110 % of initial
- Solution pH ([2]; RT, dark, 2 weeks): (8.8)
- Amount of Free C21, % of initial ([2]; RT, dark, 3 weeks): 111 % of initial
- Solution pH ([2]; RT, dark, 3 weeks): (8.8)
- Amount of Free C21, % of initial ([2]; RT, dark, 4 weeks): 112 % of initial
- Solution pH ([2]; RT, dark, 4 weeks): (8.2)
- Amount of Free C21, % of initial ([2]; RT, dark, Initial): 100 % of initial
- Solution pH ([2]; RT, dark, Initial): (8.3)
- Amount of Free C21, % of initial ([2]; RT, light, 1 week): 108 % of initial
- Solution pH ([2]; RT, light, 1 week): (8.4)
- Amount of Free C21, % of initial ([2]; RT, light, 2 weeks): 96 % of initial
- Solution pH ([2]; RT, light, 2 weeks): (8.0)
- Amount of Free C21, % of initial ([2]; RT, light, 3 weeks): 72 % of initial
- Solution pH ([2]; RT, light, 3 weeks): (8.3)
- Amount of Free C21, % of initial ([2]; RT, light, 4 weeks): 9 % of initial
- Solution pH ([2]; RT, light, 4 weeks): (7.3)
- Amount of Free C21, % of initial ([2]; RT, light, Initial): 100 % of initial
- Solution pH ([2]; RT, light, Initial): (8.3)
- C21 assay values (I) ([3]; T0): 98.2 % recovery
- impurity values (II) ([3]; T0): 0.24 % recovery
- C21 assay values (I) [3, 5]: 102.2 % recovery
- impurity values (II) [3, 5]: 0.23 % recovery
- C21 assay values (I) [3, 6]: 101.3 % recovery
- impurity values (II) [3, 6]: 0.25 % recovery
- C21 assay values (I) [3, 7]: 102.0 % recovery
- impurity values (II) [3, 7]: 0.24 % recovery
